Measurements published in patent US20140081017A1, “Histone Deacetylase Inhibitors for Enhancing Activity of Antifungal Agents” (METHYLGENE INC., priority 2012, published 2014).
≈ marks a conversion by molar mass, not a printed value. Like-named read-outs stand apart in the source and are kept apart here.

What was measured:
[1] = test system: C. glabrata; experiment: Checkerboard FIC assay in combination with fluconazole (MIC alone and in combination, FICI); assay type: cell-based, Candida glabrata; conditions: Nakaseomyces glabratus; C. glabrata, this study, checkerboard assay; read-out: MIC of fluconazole alone against both test isolates
How it was run: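 C. glabrata was tested by CLSI broth microdilution checkerboard, crossing 2-fold dilutions of compound with 2-fold dilutions of fluconazole. The medium was RPMI with 0.165 M MOPS at pH 7.0, inoculated from a 0.5 McFarland suspension diluted 1:100, then incubated about 48 h at 35 °C. Single-agent MICs gave the FIC and FICI values.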

[2] = test system: C. glabrata; conditions: based on a prior study / previously observed; cited from earlier work
[3] = test system: Candida albicans; conditions: 48 hr; range not explained; cited from earlier work;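 for Minimum Inhibitory Concentrations against Yeast Isolates, Candida albicans: two read times 24 hr and 48 hr of incubation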
[4] = test system: Candida glabrata; experiment: Minimal Inhibitory Concentration (MIC) assay, broth microdilution per CLSI; assay type: cell-based; conditions: Nakaseomyces glabratus, read-out: Minimum Inhibitory Concentrations against Yeast Isolates, Candida glabrata;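 note: two read times 24 hr and 48 hr of incubation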
How it was run: (§1)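 CLSI broth microdilution in RPMI/0.165 M MOPS pH 7.0; 2-fold DMSO dilution series; inoculum 0.5 McFarland diluted 1:100; 35° C, ~24-48 hr; MIC = lowest conc. with no visible growth, read from plate bottom.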

[5] = test system: Candida albicans; experiment: as above; assay type: cell-based; conditions: Candida albicans, read-out: Minimum Inhibitory Concentrations against Yeast Isolates, Candida albicans
How it was run: as §1

[6] = test system: Candida parapsilosis; experiment: as above; assay type: cell-based; conditions: Lodderomyces parapsilosis, read-out: Minimum Inhibitory Concentrations against Yeast Isolates, Candida parapsilosis
How it was run: as §1

[7] = test system: Candida parapsilosis; conditions: range not explained, cited from earlier work;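 for Minimum Inhibitory Concentrations against Yeast Isolates, Candida parapsilosis: two read times 24 hr and 48 hr of incubation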
[8] = 24 hr reading (first value of cell 24 hr/48 hr)
[9] = 48 hr reading (second value of cell 24 hr/48 hr)

OC(Cn1cncn1)(Cn1cncn1)c1ccc(F)cc1F [Fluconazole, reference compound]
MIC [1]: > 8 µg/mL
MIC of fluconazole alone against both test isolates [2]: > 64 µg/mL
MIC range in parentheses below the comparator's MIC, Candida albicans [3]: (NA/0.25-1) ug/mL
MIC [4, 8]: 4 µg/mL (≈ 13.1 µM)
MIC [4, 9]: 8 µg/mL (≈ 26.1 µM)
MIC [5, 8]: 0.25 µg/mL (≈ 0.816 µM)
MIC [5, 9]: 1 µg/mL (≈ 3.27 µM)
MIC [6, 8]: 2 µg/mL (≈ 6.53 µM)
MIC [6, 9]: 4 µg/mL (≈ 13.1 µM)
MIC range in parentheses below the comparator's MIC, Candida parapsilosis ([7]; 24 hr): 0.5 to 4 µg/mL
MIC range in parentheses below the comparator's MIC, Candida parapsilosis ([7]; 48 hr): 1 to 4 µg/mL
